The assay deals with T1, IKKβ (Homo sapiens, UniProt O14920).
T1 construct: His; made in house; host or cells: SF9 insect cells (baculovirus, pVL1393 transfer vector)
T1 sequence (O14920 1-756): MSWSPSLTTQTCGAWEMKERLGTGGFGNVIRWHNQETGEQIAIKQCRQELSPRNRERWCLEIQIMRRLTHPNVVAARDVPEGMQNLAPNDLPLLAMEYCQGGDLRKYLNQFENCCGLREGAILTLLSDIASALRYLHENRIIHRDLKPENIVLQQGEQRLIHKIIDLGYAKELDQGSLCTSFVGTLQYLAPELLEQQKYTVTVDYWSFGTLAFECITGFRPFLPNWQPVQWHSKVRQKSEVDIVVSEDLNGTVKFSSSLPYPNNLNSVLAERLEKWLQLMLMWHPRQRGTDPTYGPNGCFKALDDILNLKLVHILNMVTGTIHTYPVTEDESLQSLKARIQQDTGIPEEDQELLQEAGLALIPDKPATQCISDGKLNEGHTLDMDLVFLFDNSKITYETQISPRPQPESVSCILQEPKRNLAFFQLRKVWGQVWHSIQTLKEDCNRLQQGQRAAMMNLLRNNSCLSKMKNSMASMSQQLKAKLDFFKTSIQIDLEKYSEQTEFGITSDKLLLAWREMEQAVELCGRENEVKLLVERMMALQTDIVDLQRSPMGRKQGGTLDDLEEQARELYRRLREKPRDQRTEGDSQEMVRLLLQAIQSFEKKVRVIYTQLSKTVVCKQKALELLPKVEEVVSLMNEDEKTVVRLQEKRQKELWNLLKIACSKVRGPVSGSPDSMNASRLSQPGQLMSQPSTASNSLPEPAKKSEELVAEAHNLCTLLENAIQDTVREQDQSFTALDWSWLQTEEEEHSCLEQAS
Description: Homogenous Time Resolved Fluorescence (HTRF) assay for IKK inhibitory activity. The assay is classed as biochemical. To be noted: read-out: IKKβIC50. From the text:
Homogenous Time Resolved Fluorescence (HTRF) Assay for IKK Inhibitory Activity.
This enzyme assay monitors the inhibitory potency of the compounds of Formula I and II to block the catalytic activity of IKKα and IKKβ in vitro. The full-length coding sequences of IKKα and IKKβ are subcloned into the appropriate site of pVL1393 (Pharmingen) to construct a baculovirus transfer vector. Recombinant baculovirus was generated from vector-transfected SF9 cells (BaculoGold™, Invitrogen), cloned, amplified and used to infect SF9 cells for protein production. Recombinant His-tagged IKKα and IKKβ are isolated from the Baculovirus-infected SF9 cells expressing the fusion protein.
An HTRF assay in a 384-well format established on a Biomek FX is used to test the inhibitory activity of compounds of Formula I. The peptide substrate, biotin-DRHDSGLDSMKDE (SEQ. ID.: 1) used to assay IKKβ activity spans residues 28 to 40 of IκBα and was custom synthesized (Synpep). A biotinylated peptide that spans residues 21 to 40 of Iκbα, […] (SEQ. ID.: 2), was used as substrate for IKKα. The assay conditions used to test inhibitory activity of compounds against IKKβ comprises 110 nM recombinant enzyme, 150 nM peptide substrate, 6 μM ATP, 10% (v/v) DMSO, 15 mM MgCl2, 2 mM DTT, and 50 mM Tris/HCl at a pH of 7.5. For IKKα, the reaction mixture comprises 125 nM recombinant enzyme, 400 nM peptide substrate, 6 μM ATP, 10% (v/v) DMSO, 15 mM MgCl2, 2 mM DTT, and 50 mM Tris/HCl at a pH of 7.5. The kinase reaction proceeds for 20 and 35 min for IKKα and IKKβ respectively and then it is quenched by the addition of EDTA to a final concentration of 20 mM. Following completion of the kinase assay, 5 μL of the reaction is quantified by HTRF with a 5 μL detection mix comprising 40 mM HEPES, 100 mM KF, 27.7 nM Streptavidin-tagged-XL665-XLent (CIS-Bio international), 0.3 nM anti-phospho-IκBα mAb (Cell signaling), 1 nM anti-phospho peptide antibody conjugated to Eu (CIS-Bio international). Following excitation at 330 nm, the 665 nm/615 nm emission ratio is measured after a 2-hour incubation at room temperature to quantify the FRET signal.

The text below walks through data of patent US8518964B2, “Tricyclic compounds useful as inhibitors of kinases” (Merck Sharp & Dohme Corp., priority 2006, dated 2013).

Each structure is given as a SMILES string.

Turning to `NC(=O)c1cnc(N)c2c1sc1c(Cl)cccc12` [Example 3, 1-Amino-6-chloro[1]benzothieno[3,2-c]pyridine-4-carboxamide], the IC50 was at most 1000 nM.

Turning to `NC(=O)c1cnc(N)c2c1sc1c(-c3ccccc3)cccc12` [Example 4, 1-Amino-6-phenyl[1]benzothieno[3,2-c]pyridine-4-carboxamide], the IC50 is at most 1000 nM. Take `NC(=O)c1cnc(N)c2c1[nH]c1cc(C(F)(F)F)ccc12` [Example 5, 1-Amino-7-(trifluoromethyl)-5H-pyrido[4,3-b]indole-4-carboxamide]: the IC50 was at most 100 nM. To `NC(=O)c1cnc(N)c2c1[nH]c1ccc(F)cc12` [Example 6, 1-Amino-8-fluoro-5H-pyrido[4,3-b]indole-4-carboxamide] belongs at most 1000 nM; to `CCCCNc1ncc(C(N)=O)c2[nH]c3ccc(F)cc3c12` [Example 8, 1-(Butylamino)-8-fluoro-5H-pyrido[4,3-b]indole-4-carboxamide], at most 1000 nM; to `NC(=O)c1cnc(N2CCC3(CC2)OCc2ccccc23)c2c1[nH]c1ccc(F)cc12` [Example 9, 8-Fluoro-1-(1′H,3H-spiro[2-benzofuran-1,4′-piperidin]-1′-yl)-5H-pyrido[4,3-b]indole-4-carboxamide], at most 500 nM. The result for `NC(=O)c1cnc(N)c2c1[nH]c1ccc(Br)cc12` [Example 11, 1-Amino-8-bromo-5H-pyrido[4,3-b]indole-4-carboxamide] reads at most 1000 nM; that for `NC(=O)c1cnc(N)c2c1sc1cc(/C=C/c3ccc(F)cc3)ccc12` [Example 16, 1-Amino-7-[(E)-2-(4-fluorophenyl)vinyl][1]benzothieno[3,2-c]pyridine-4-carboxamide], at most 500 nM. The result for `CN(C)Cc1ccc(-c2ccc3c(c2)sc2c(C(N)=O)cnc(N)c23)cc1` [Example 21, 1-Amino-7-{4-[(dimethylamino)methyl]phenyl}[1]benzothieno[3,2-c]pyridine-4-carboxamide] reads at most 500 nM; that for `NC(=O)c1cnc(N)c2c1[nH]c1c(Cl)cccc12` [Example 25, 1-Amino-6-chloro-5H-pyrido[4,3-b]indole-4-carboxamide], at most 100 nM.
